Values quoted from earlier work as cited in patent publication US7858803B2, “Imaging tracers for early detection and treatment of amyloid plaques caused by Alzheimer's disease and related disorders” (The General Hospital Corporation, priority 2007, dated 2010).

How the values were obtained:
[1] = normal mice, iv, at 2 min after injection
[2] = tested on: brain amyloid deposits; details: APP23 transgenic mice, brain sections at 180 min after iv injection

Structure (SMILES): CNc1ccc(C=Cc2nc3ccc(OCCF)cc3o2)cc1 [BF-168, 6-(2-fluoroethoxy)-2-[2-(4-methylaminophenyl)ethenyl]-benzoxazole]
- initial brain uptake [1]: 3.9 % injected dose/gm
- labeling of brain amyloid deposits in autoradiograms [2]: selective labeling of brain amyloid deposits with little non-specific binding
